Here are results for five molecules from article PMC12332157, “A preclinical study on the influence of linkers in [^68Ga]Ga-NOTA-X-RM26 radiotracers for PET imaging of GRPR expression” (EJNMMI Research, 2025).

One series deals with T1, GRPR (Homo sapiens, UniProt P30550).
T1 construct: endogenous in cells; host or cells: PC-3 human prostate cancer cells
The experiment in a line: Competitive binding against [125I]I-Tyr4-bombesin on PC-3 cells. Conditions: natGa-loaded peptide vs [125I]I-Tyr4-bombesin, 5 h at 4 °C. How it is done: In short, 30 nmol of the respective peptide was mixed with 10 µL of 9 mM GaCl3, 150 µL of 0.1 M HCl, and 250 µL of 1 M sodium acetate (pH 4.5). The mixture was then incubated at 70 °C for 60 min.
PC-3 cells were seeded in 12-well plates at 10^5 cells per well density and incubated overnight. Then, the media was aspirated, and cells were washed with 500 µL of cold PBS buffer, containing 1% w/v bovine serum albumin (PBS/BSA buffer). Then the cells were treated with 350 µL of cold PBS/BSA buffer, 50 µL of the metalated ligand at different concentrations (from 0 to 1000 nM), and 100 µL of [^125I]I-Tyr^4-bombesin (PerkinElmer, Waltham, MA, USA) in PBS/1% BSA buffer, at 24.6 fmol/well concentration. Cells were incubated for 5 h at 4°C to reach equilibrium of binding. After that, the supernatant was removed, cells were washed with cold PBS buffer containing 1% BSA, and collected using 1 mL of 1 M NaOH heated to 37 °C. The radioactivity was measured by a Wizard 2480 gamma counter (PerkinElmer, Waltham, MA, USA). The experiments were performed in triplicates (n = 3) and the data were fitted to the curves with a nonlinear regression model in GraphPad Prism 7.

Series [1] can be described thus: Complex stability of 68Ga-labeled peptides in PBS or EDTA solution in PBS (iTLC). The series is classed as physicochemical. Conditions: n = 3, mean ± sd.
Series [2] in a line: Octanol-water distribution coefficient (LogD). The class given is physicochemical. The settings on record: n-octanol/PBS; n = 3; mean ± sd. How it is done:
Octanol-water distribution coefficient (LogD) was determined by adding 10 pmol of radiopeptide to an Eppendorf tube containing 500 µL of phosphate-buffered saline (PBS) and 500 µL of n-octanol. Each tube was vortexed for 2 min and centrifuged at 6000 g for 5 min. Three 100 µL fractions were collected from each phase, and their radioactivity was measured.

A short description of series [3]: Biodistribution in BALB/c nu/nu mice bearing PC-3 xenografts. Conditions: female, BALB/c nu/nu, mouse, iv, total radioactivity. The class given is in vivo. On the procedure: (§1) Female BALB/c nu/nu mice of 18–22 g weight were used in the study. All procedures with animals were conducted in accordance with the EU Directive 2010/63/EU for animal experiments and Swedish national legislation concerning the protection of laboratory animals. The experiments were approved by the ethics committee for animal research in Uppsala (Sweden) with permit number 5.8.18–00473/2021. Animals were housed in individually ventilated cages, under a 12-h light/dark cycle with free access to food and water.
(§2) For tumor inoculation, 8·10^6 PC-3 cells in 100 µL PBS were injected subcutaneously into the right hind leg of mice. Mouse weight and tumor size were measured every 2–3 days, and tumor volume was estimated by ellipsoid approximation. A predefined humane endpoint of the experiment was either a 15% weight loss or a tumor volume of 1000 mm^3, neither of which was reached.
(§3) Four weeks after tumor cell implantation, mice were randomized and divided into 6 groups (4 animals / group): 3 of them received treatment with ^68Ga-radiolabeled peptides, while the other 3 received the same peptides in addition to 5 nmol of non-labeled NOTA-PEG2-RM26 peptide for GRPR-blocking. Peptides were injected intravenously via the tail veins at a dose of 50 pmol (700 kBq radioactivity dose).
(§4) At 2 h post injection, mice were sacrificed by overdose of Ketamine/Xylazine anesthesia, and blood was collected by heart puncture. Then, liver, spleen, lungs, pancreas, kidneys, small intestine, stomach, tail, femur bones, tumor and muscle from the opposite legs were collected, weighed, and radioactivity was measured using a Wizard 2480 gamma counter. Data are presented as percentages of injected activity per gram of tissue (%IA/g).

Series [4] relates to PC-3 xenograft bearing BALB/c nu/nu mice. The series is described as above. The class given is in vivo. The settings on record: 2 h p.i. How it is done:
as §1, §2, §3, §4

Read-outs that look alike come from different tables or passages of the source. Starred links: 1 amine or outer side, 2 acyl side, 3 side chain; linkers in the order of their positions; H or OH if unused. Non-standard residues stand in square brackets, D forms with d. Residues, ends and D or L forms follow the SMILES beside them. *: point of attachment. NOTA = O=C(O)CN1CCN(CC(=O)O)CCN(CC(=O)*)CC1; Sta = CC(C)C[C@H](N)[C@@H](O)CC(=O)O; X2 = O=C(COc1cccc(CN[*:1])c1)[*:2]; X1 = O=C(Cc1ccccc1CCN[*:1])[*:2]; X3 = O=C(COc1ccccc1CN[*:1])[*:2]

T1 sequence (P30550 whole entry): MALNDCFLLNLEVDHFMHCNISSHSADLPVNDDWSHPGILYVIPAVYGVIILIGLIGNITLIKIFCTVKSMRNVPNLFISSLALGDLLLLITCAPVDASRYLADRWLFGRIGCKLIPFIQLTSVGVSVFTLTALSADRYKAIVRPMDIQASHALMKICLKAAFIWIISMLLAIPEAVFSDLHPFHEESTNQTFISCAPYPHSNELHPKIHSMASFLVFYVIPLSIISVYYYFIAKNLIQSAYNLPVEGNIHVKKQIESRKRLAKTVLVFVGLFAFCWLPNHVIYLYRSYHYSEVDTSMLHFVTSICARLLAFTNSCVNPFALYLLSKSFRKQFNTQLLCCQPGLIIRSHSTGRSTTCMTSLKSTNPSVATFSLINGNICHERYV

As a reminder, the IC50 is the concentration that gives 50% inhibition. Lower therefore signals higher potency. At GRPR, `CC(=O)N[C@@H](CCCCNC(=O)CN1CCN(CC(=O)O)CCN(CC(=O)O)CC1)C(=O)NCc1ccccc1OCC(=O)N[C@H](Cc1ccccc1)C(=O)N[C@@H](CCC(N)=O)C(=O)N[C@@H](Cc1c[nH]c2ccccc12)C(=O)N[C@@H](C)C(=O)N[C@H](C(=O)NCC(=O)N[C@@H](Cc1c[nH]cn1)C(=O)N[C@@H](CC(C)C)[C@@H](O)CC(=O)N[C@@H](CC(C)C)C(N)=O)C(C)C` [^natGa-NOTA-oMA-RM26, metal not drawn] (Ac-K(NOTA)[X3][dF]QWAVGH[Sta]L-NH2) came in with an IC50 of 1.3 nM.
Still for that read-out and setting: the same measure for `CC(=O)N[C@@H](CCCCNC(=O)CN1CCN(CC(=O)O)CCN(CC(=O)O)CC1)C(=O)NCc1cccc(OCC(=O)N[C@H](Cc2ccccc2)C(=O)N[C@@H](CCC(N)=O)C(=O)N[C@@H](Cc2c[nH]c3ccccc23)C(=O)N[C@@H](C)C(=O)N[C@H](C(=O)NCC(=O)N[C@@H](Cc2c[nH]cn2)C(=O)N[C@@H](CC(C)C)[C@@H](O)CC(=O)N[C@@H](CC(C)C)C(N)=O)C(C)C)c1` [^natGa-NOTA-mMA-RM26, metal not drawn] (Ac-K(NOTA)[X2][dF]QWAVGH[Sta]L-NH2): 0.27 nM.
Usually amount remaining stands for the share of the starting amount still present when the sample was taken. A higher amount remaining goes with less turnover. As usually defined, the logD is lipophilicity at a set pH, counting ionised and neutral species. Molecule `CC(=O)N[C@@H](CCCCNC(=O)CN1CCN(CC(=O)O)CCN(CC(=O)O)CC1)C(=O)NCc1ccccc1OCC(=O)N[C@H](Cc1ccccc1)C(=O)N[C@@H](CCC(N)=O)C(=O)N[C@@H](Cc1c[nH]c2ccccc12)C(=O)N[C@@H](C)C(=O)N[C@H](C(=O)NCC(=O)N[C@@H](Cc1c[nH]cn1)C(=O)N[C@@H](CC(C)C)[C@@H](O)CC(=O)N[C@@H](CC(C)C)C(N)=O)C(C)C` [[^68Ga]Ga-NOTA-oMA-RM26, metal not drawn] (Ac-K(NOTA)[X3][dF]QWAVGH[Sta]L-NH2) returned an amount remaining at 1 h, 1 µM in series [1] (PBS buffer, pH 7.4, incubation at 37 °C for 1 h in PBS) of 91.7 ± 5.1%. In addition, the “Stability in PBS with EDTA” value in series [1] (incubation at 37 °C for 1 h in PBS with 1000-fold molar excess of EDTA, in % (unit assumed)) turned out to be 91.3 ± 5.2. In series [2], the logD was -0.86 ± 0.02. For the same molecule, the tissue uptake at 2 h in series [3] (blood, 50 pmol, 2 h p.i., i.v., read-out: Radionuclide concentration, Blood) was 0.47 ± 0.17 %ID/g; in series [3] (blood, Blockade (co-injection of NOTA-PEG2-RM26), 2 h, read-out: Radionuclide concentration, Blood) it was 0.22 ± 0.08 %ID/g; in series [3] (bone, 50 pmol, 2 h p.i., i.v., read-out: Radionuclide concentration, Bone), 0.34 ± 0.05 %ID/g; in series [3] (bone, Blockade (co-injection of NOTA-PEG2-RM26), 2 h, read-out: Radionuclide concentration, Bone), 0.23 ± 0.03 %ID/g; in series [3] (kidneys, 50 pmol, 2 h p.i., i.v., read-out: Radionuclide concentration, Kidneys) it was 6.3 ± 0.9 %ID/g; in series [3] (kidneys, Blockade (co-injection of NOTA-PEG2-RM26), 2 h, read-out: Radionuclide concentration, Kidneys) it was 6.2 ± 1.3 %ID/g. The tissue uptake at 2 h in series [3] (liver, 50 pmol, 2 h p.i., i.v., read-out: Radionuclide concentration, Liver) was 3.5 ± 0.5 %ID/g; in series [3] (liver, Blockade (co-injection of NOTA-PEG2-RM26), 2 h, read-out: Radionuclide concentration, Liver) it was 1.4 ± 0.4 %ID/g; in series [3] (lungs, 50 pmol, 2 h p.i., i.v., read-out: Radionuclide concentration, Lungs) it was 5.7 ± 1.5 %ID/g; in series [3] (lungs, Blockade (co-injection of NOTA-PEG2-RM26), 2 h, read-out: Radionuclide concentration, Lungs), 3.5 ± 2.2 %ID/g; in series [3] (muscle, 50 pmol, 2 h p.i., i.v., read-out: Radionuclide concentration, Muscle), 0.16 ± 0.05 %ID/g; in series [3] (muscle, Blockade (co-injection of NOTA-PEG2-RM26), 2 h, read-out: Radionuclide concentration, Muscle), 0.21 ± 0.09 %ID/g. The tissue uptake at 2 h in series [3] (pancreas, 50 pmol, 2 h p.i., i.v., read-out: Radionuclide concentration, Pancreas) came out at 21 ± 5.2 %ID/g; in series [3] (pancreas, Blockade (co-injection of NOTA-PEG2-RM26), 2 h, read-out: Radionuclide concentration, Pancreas), 2.5 ± 0.6 %ID/g; in series [3] (small intestine, 50 pmol, 2 h p.i., i.v., read-out: Radionuclide concentration, Small Intestines), 3.4 ± 1.3 %ID/g; in series [3] (small intestine, Blockade (co-injection of NOTA-PEG2-RM26), 2 h, read-out: Radionuclide concentration, Small Intestines), 0.61 ± 0.13 %ID/g; in series [3] (spleen, 50 pmol, 2 h p.i., i.v., read-out: Radionuclide concentration, Spleen) it was 1.2 ± 0.3 %ID/g; in series [3] (spleen, Blockade (co-injection of NOTA-PEG2-RM26), 2 h, read-out: Radionuclide concentration, Spleen) it was 0.37 ± 0.08 %ID/g. Also, the tissue uptake at 2 h turned out to be 3.5 ± 0.7 %ID/g in series [3] (stomach, 50 pmol, 2 h p.i., i.v., read-out: Radionuclide concentration, Stomach); 1.1 ± 0.7 %ID/g in series [3] (stomach, Blockade (co-injection of NOTA-PEG2-RM26), 2 h, read-out: Radionuclide concentration, Stomach); 10.2 ± 2.7 %ID/g in series [3] (tumor (PC-3 xenograft), 50 pmol, 2 h p.i., i.v., PC-3 xenograft, read-out: Radionuclide concentration, Tumor); 1 ± 0.4 %ID/g in series [3] (tumor (PC-3 xenograft), Blockade (co-injection of NOTA-PEG2-RM26), 2 h, read-out: Radionuclide concentration, Tumor). Also, the tissue uptake dose at 2 h in series [3] (carcass, 50 pmol, 2 h p.i., i.v., read-out: Radionuclide quantity, Carcass) amounted to 2.9 ± 0.4 %ID; in series [3] (carcass, Blockade (co-injection of NOTA-PEG2-RM26), 2 h, read-out: Radionuclide quantity, Carcass) it was 5.9 ± 2.7 %ID; in series [3] (gastrointestinal tract, 50 pmol, 2 h p.i., i.v., read-out: Radionuclide quantity, Gastrointestinal tract), 6.5 ± 0.7 %ID; in series [3] (gastrointestinal tract, Blockade (co-injection of NOTA-PEG2-RM26), 2 h, read-out: Radionuclide quantity, Gastrointestinal tract), 4.1 ± 2.1 %ID; in series [3] (total (sum of the measured activities), 50 pmol, 2 h p.i., i.v., sum of the measured activities, read-out: Radionuclide quantity, Total), 19.8 ± 2.6 %ID; in series [3] (total, Blockade (co-injection of NOTA-PEG2-RM26), 2 h, read-out: Radionuclide quantity, Total), 15.7 ± 2.9 %ID.
In the case of `CC(=O)N[C@@H](CCCCNC(=O)CN1CCN(CC(=O)O)CCN(CC(=O)O)CC1)C(=O)NCCc1ccccc1CC(=O)N[C@H](Cc1ccccc1)C(=O)N[C@@H](CCC(N)=O)C(=O)N[C@@H](Cc1c[nH]c2ccccc12)C(=O)N[C@@H](C)C(=O)N[C@H](C(=O)NCC(=O)N[C@@H](Cc1c[nH]cn1)C(=O)N[C@@H](CC(C)C)[C@@H](O)CC(=O)N[C@@H](CC(C)C)C(N)=O)C(C)C` [^natGa-NOTA-oET-RM26, metal not drawn] (Ac-K(NOTA)[X1][dF]QWAVGH[Sta]L-NH2), the IC50 on GRPR was 3.4 nM. This lies in the single-digit nanomolar range.
In the case of `CC(=O)N[C@@H](CCCCNC(=O)CN1CCN(CC(=O)O)CCN(CC(=O)O)CC1)C(=O)NCCc1ccccc1CC(=O)N[C@H](Cc1ccccc1)C(=O)N[C@@H](CCC(N)=O)C(=O)N[C@@H](Cc1c[nH]c2ccccc12)C(=O)N[C@@H](C)C(=O)N[C@H](C(=O)NCC(=O)N[C@@H](Cc1c[nH]cn1)C(=O)N[C@@H](CC(C)C)[C@@H](O)CC(=O)N[C@@H](CC(C)C)C(N)=O)C(C)C` [NOTA-oET-RM26] (Ac-K(NOTA)[X1][dF]QWAVGH[Sta]L-NH2), in series [4], the “peptide accumulation in the liver and lungs” value is “lowest activity uptake”; the tumor-to-liver ratio entry was “best tumor-to-liver ratio”.
